{
  "source": "patent US8198293B2",
  "about": "“Oxymatrine compositions and related methods for treating and preventing chronic infectious diseases” (priority 2008, dated 2012)",
  "key": {"hepatitis B virus": {"test_system": "hepatitis B virus", "details": "HBV transgenic mice, cited from earlier work"}, "enterovirus [1]": {"test_system": "enterovirus", "experiment": "Case report: acute enterovirus infection of the gastrointestinal tract", "assay_type": "in vivo, human", "details": "Example 10 patient, 200 mg bid, after ten days", "from_the_text": "A person developed subacute onset of severe fatigue, nausea, anorexia and progressive weight loss of 20 pounds following an upper respiratory infection."}, "[2]": {"test_system": "chronic enterovirus infection / chronic fatigue", "experiment": "Case reports: treatment of chronic fatigue (Examples 2-5)", "assay_type": "in vivo, human", "protocol": "A person with episodes of diarrhea while traveling to Tonga developed severe respiratory infection soon thereafter. The symptoms consisted of fevers to 105° F., night sweats, diffuse myalgia, tachycardia, fatigue, sinus congestion and cough, and unresponsiveness to antibiotics. The patient developed profound fatigue thereafter and went on total disability three months after the onset of symptoms. Initial Coxsackie B virus (CBV) 3, CVB4 and echovirus 9 antibody titers were 1:320, 1:160, 1:80 (normal <1:10), respectively.\nThe patient could not work for the next 18 months. They were started on oxymatrine at 300 mg twice a day (bid). After taking oxymatrine for two months, they were able to take short walks, but still exhausted after one hour of activity requiring five hour naps. At the end of three months of therapy, they started having fevers of 104-105° F. for several days with marked decrease in diffuse myalgia. […] CVB3, CVB4 and echovirus antibody three months after therapy were 1:160, 1:160 and 1:20, respectively.\nA person who had recurrent episodes of debilitating fatigue became totally incapacitated after approximately 17 years. […] They went into remission but relapsed nine months later after developing a minor upper respiratory infection. They improved minimally after several months of bed rest, but was barely able to work six hours per day. They had brain fog, myalgia ( 7/10 pain) and was barely able to walk even 1-2 blocks.\nThree days after taking oxymatrine at a dose of 300 mg bid, the myalgia intensified ( 10/10 pain), especially one hour after taking the pills. One week after starting oxymatrine, routine laboratory tests including CBC, chemistry panel and creatine phosphokinase (CPK) were normal. They continued having significant fatigue and myalgia for the next three weeks, but the symptoms resolved one week after stopping the medication. Mild increase in myalgia recurred three days after resuming oxymatrine, but resolved after continuing the medication for the next two weeks. The patient felt well at the end of three months with minimal discomfort in a few muscle groups.\nSevere myalgia recurred after resuming vigorous exercise for three weeks while taking oxymatrine. They had to stop exercise for the two months allowing cessation of myalgia. After taking oxymatrine for six months, the patient felt well. Over the next six months after stopping the medication, the patient continuously performed heavy physical activities without significant difficulty. After developing another episode of upper respiratory symptoms, their symptoms relapsed. They have resumed oxymatrine but experienced increasing myalgia as the fatigue improved.\nA person with a known history of frequent respiratory infections and vasovagal syncope developed respiratory infection, which was followed by bedridden fatigue. Enteroviral protein was detected in the stomach biopsy consistent with chronic enterovirus infection. […] After vigorous exercise, they would still have relapses of bedridden fatigue for one day but continued to work 10-12 hours per day for the next 12 months, walking two miles per day. Laboratory tests were normal while on therapy.\nA person developed debilitating fatigue, sore throat, oral ulcers, vertigo, headaches and cognitive dysfunction two months after having a flu-like illness. […] Approximately four years later, the patient started taking oxymatrine. After an initial increase of gastrointestinal symptoms for the first two weeks, the patient tolerated 500 mg per day of oxymatrine.\nThe symptoms continued for two weeks and resolved after stopping oxymatrine. […] They continued to improve for 12 months after taking the medication."}, "enterovirus [3]": {"test_system": "enterovirus", "experiment": "Case reports: diarrhea with viral/enterovirus protein in colon biopsy (Examples 11, 12)", "assay_type": "in vivo, human", "from_the_text": "A person developed continuing watery diarrhea, as many as twenty episodes a day, and mild fatigue for three months. Laboratory studies and stool work-up were completely negative. […] They failed Asacol therapy.\nA person developed severe watery diarrhea for two months. Stool evaluation was unremarkable. […] They continued to do well for six months on the medication. A decrease of medication to half the dose cause a relapse of the symptoms, which resolved after increasing the dosage."}, "coxsackievirus B": {"test_system": "coxsackievirus B", "details": "in vitro, cell cultures; mechanism not defined; cited from earlier work"}, "[4]": {"details": "compared to placebo-treated animals"}},
  "data": [
    {"smiles": "O=C1CCC[C@@H]2[C@H]3CCC[N@+]4([O-])CCC[C@@H](CN12)[C@@H]34", "note": "[oxymatrine]", "values": [
      {"measurement": "level of gamma interferon", "setting": "hepatitis B virus; [4]", "result": "increased more than three-fold"},
      {"measurement": "level of interleukin-2", "setting": "hepatitis B virus; [4]", "result": "increased more than three-fold"},
      {"measurement": "level of interleukin-4", "setting": "hepatitis B virus; [4]", "result": "decreased more than three-fold"},
      {"measurement": "level of interleukin-10", "setting": "hepatitis B virus; [4]", "result": "decreased more than three-fold"},
      {"measurement": "effect on hepatitis B viremia, mRNA and protein levels", "setting": "hepatitis B virus", "result": "No effect"},
      {"measurement": "clinical outcome", "setting": "enterovirus [1]", "result": "resumed their normal activity"},
      {"measurement": "relapse after therapy", "setting": "[2]; Example 2 patient", "result": "had not relapsed for at least one year"},
      {"measurement": "clinical outcome", "setting": "[2]; Example 2 patient, three months after finishing the medication", "result": "went back to full-time work"},
      {"measurement": "laboratory studies including CBC and complete chemistry panel during therapy", "setting": "[2]; Example 2 patient, calcium resolved after stopping hydrochlorothiazide", "result": "normal except mildly elevated calcium levels"},
      {"measurement": "clinical outcome", "setting": "[2]; Example 3 patient, after taking oxymatrine for six months", "result": "felt well"},
      {"measurement": "routine laboratory tests including CBC, chemistry panel and CPK", "setting": "[2]; Example 3 patient, one week after starting oxymatrine", "result": "normal"},
      {"measurement": "myalgia pain score", "setting": "[2]; Example 3 patient, three days after starting 300 mg bid, 7/10 before", "result": "10/10"},
      {"measurement": "laboratory tests while on therapy", "setting": "[2]; Example 4 patient", "result": "normal"},
      {"measurement": "tolerability", "setting": "[2]; Example 4 patient", "result": "tolerated well without any adverse reactions"},
      {"measurement": "clinical outcome", "setting": "[2]; Example 4 patient, after taking the medication for six weeks", "result": "returned to full-time work"},
      {"measurement": "clinical outcome", "setting": "[2]; Example 5 patient, three months later", "result": "able to return to part-time work and regular exercise"},
      {"measurement": "symptoms during therapy", "setting": "[2]; Example 5 patient, two months on 500 mg per day, resolved after stopping oxymatrine", "result": "severe diffuse ulcerations of the mouth mucosa, increasing headache, sinus congestion and severe myalgia"},
      {"measurement": "diarrhea outcome", "setting": "enterovirus [3]; Example 11 patient, oxymatrine 200 mg bid", "result": "resolved completely in a few days"},
      {"measurement": "diarrhea outcome", "setting": "enterovirus [3]; Example 12 patient", "result": "resolved within one week"},
      {"measurement": "growth inhibition of coxsackievirus B", "setting": "coxsackievirus B", "result": "growth inhibition"}
    ]}
  ]
}
